Assay results from patent publication US20120165403A1, “METHODS OF INHIBITING THE ACTIVITY OF HSP90 AND/OR ARYL HYDROCARBON RECEPTOR” (UNIVERSITY OF ROCHESTER, priority 2004, published 2012).

Tests used:
ARNT = biological target: T1, ARNT (Mus musculus, UniProt P53762); assay: Affinity chromatography on EGCG-conjugated Sepharose, in vitro translated ARNT; format: binding, murine; conditions: 35S-ARNT in vitro translated in RRL
T1 construct: made in house; host or cells: coupled transcription/translation in rabbit reticulocyte lysate (TNT, Promega), 35S-labelled
From the text: Murine AhR and ARNT cDNA (obtained from J. Whitlock and O. Hankinson, respectively) were inserted into pcDNA3 (Invitrogen, Carlsbad, Calif.). Chicken hsp90 constructs (FIG. 5), c90711hsp (wild-type), c90G94D (wild-type point mutant gly94→Asp (Grenert et al., J. Biol. Chem. 272:23843-23850 (1997), which is hereby incorporated by reference in its entirety), c90D92A (wild-type point mutant Asp92→Ala (Sullivan et al., J. Biol. Chem. 268:20373-20379 (1993), which is hereby incorporated by reference in its entirety), c90N221 (wild-type truncation mutant encoding a.a. 221-728 (Sullivan et al., J. Biol. Chem. 268:20373-20379 (1993), which is hereby incorporated by reference in its entirety)), c90N303 (a.a. 303-728) and c90N538 (a.a. 538-728) were kind gifts from Dr. D. Toft (Rochester, Minn.). The C-terminal truncation mutant c900507 (a.a. 1-221) was obtained from Dr. L. Neckers (Rockville, Md.) (Grenert et al., J. Biol. Chem. 272:23843-23850 (1997); Marcu et al., J. Biol. Chem. 275:37181-37186 (2000), which are hereby incorporated by reference in their entirety). Human p23 cDNA was excised from pQE80-p23 (obtained from W. Chan Stockton, Calif.) by sequential digests using the restriction enzymes Sad (3′-end) and BamHI (5′-end) and inserted into the similarly digested pET28a (Novagen, Madison, Wis.). […]

hsp90 = assay: Affinity chromatography on EGCG-conjugated Sepharose, hsp90 inherent to RRL; format: binding, rabbit; conditions: immunoblotting
Experimental: EGCG was conjugated to cyanogen bromide (CNBr)-activated Sepharose (Sigma). EGCG (2.5 mg) was dissolved in 5004 coupling buffer (0.1M NaHCO3, 0.5M NaCl, pH 6.0). CNBr-activated Sepharose was swelled and washed in 1 mM HCl on a sintered glass filter followed by a wash with coupling buffer. CNBr-activated Sepharose beads were added to the EGCG in coupling buffer at a final concentration of 5 mg EGCG/ml of wet gel. The coupling solution containing EGCG and Sepharose was mixed end-over end at 4° C. overnight. Remaining active groups were blocked for 2 h at room temperature in Tris-HCl (0.1M, pH 8). EGCG-conjugated Sepharose was washed with three cycles of alternating pH wash buffers (Buffer 1: 0.1M acetate, 0.5M NaCl, pH4.0; Buffer 2: 0.1M Tris-HCl, 0.5M NaCl, pH 8.0). […]
Approximately 25 μL of 1:4 diluted RRL containing ^35S-labeled in vitro transcribed protein was incubated with 40 μL of either unconjugated or EGCG-conjugated Sepharose beads in binding buffer (50% slurry). […] Protein was transferred to PVDF membrane (Millipore, Bedford, Mass.). ^35S-labeled AhR, ARNT, p23, XAP2, and hsp90 truncated and point mutants were detected by Phosphoimaging. Hsp90 inherent to RRL was detected by immunoblotting using an anti-hsp90 monoclonal antibody (Stressgen Victoria, BC Canada) followed by secondary antibody coupled to horseradish peroxidase (Jackson Immuno Research, West Grove, Pa.). […]

T1 sequence (P53762 whole entry): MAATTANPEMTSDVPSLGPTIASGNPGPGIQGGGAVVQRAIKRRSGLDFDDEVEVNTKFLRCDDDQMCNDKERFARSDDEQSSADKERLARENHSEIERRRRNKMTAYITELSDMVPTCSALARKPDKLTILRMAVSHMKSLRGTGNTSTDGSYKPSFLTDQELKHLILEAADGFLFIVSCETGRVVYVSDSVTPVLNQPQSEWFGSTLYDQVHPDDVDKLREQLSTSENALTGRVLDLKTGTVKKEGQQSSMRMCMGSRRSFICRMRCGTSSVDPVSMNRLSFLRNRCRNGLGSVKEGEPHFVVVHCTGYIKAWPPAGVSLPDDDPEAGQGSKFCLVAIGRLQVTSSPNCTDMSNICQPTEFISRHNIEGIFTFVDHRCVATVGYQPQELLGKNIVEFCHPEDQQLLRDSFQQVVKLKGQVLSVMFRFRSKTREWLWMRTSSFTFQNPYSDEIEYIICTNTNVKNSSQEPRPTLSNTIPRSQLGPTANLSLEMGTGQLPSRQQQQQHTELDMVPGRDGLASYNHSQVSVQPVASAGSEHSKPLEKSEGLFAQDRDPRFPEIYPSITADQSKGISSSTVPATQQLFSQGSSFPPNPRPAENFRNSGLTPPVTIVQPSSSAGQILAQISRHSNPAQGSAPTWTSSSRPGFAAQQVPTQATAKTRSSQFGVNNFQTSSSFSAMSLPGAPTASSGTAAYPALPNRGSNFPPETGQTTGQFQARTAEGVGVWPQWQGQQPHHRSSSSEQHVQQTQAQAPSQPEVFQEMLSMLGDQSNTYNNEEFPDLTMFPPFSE

Compound: O=C(O[C@@H]1Cc2c(O)cc(O)cc2O[C@@H]1c1cc(O)c(O)c(O)c1)c1cc(O)c(O)c(O)c1 [EGCG, epigallocatechin gallate]
- binding of ARNT to immobilized EGCG (ARNT): incapable of binding immobilized EGCG
- binding of hsp90 to EGCG-Sepharose (hsp90): eluted from EGCG-Sepharose
